Test results: US20260000781A1, “FC CONJUGATES INCLUDING AN INHIBITOR OF CD73 AND USES THEREOF” (Cidara Therapeutics, Inc., priority 2022, published 2026)
Where two headings read alike, the source gives them in different places.

What was measured:
[1] = molecular target: T1, CD73 on EMT6 mouse mammary carcinoma cells (Mus musculus, UniProt Q61503); test: CD73 enzyme inhibition assay with mouse EMT6 cells (PiColorLock); assay type: cell-based; details: mouse EMT6 cancer cells, AMP 100 μM
T1 construct: host or cells: EMT6
T1 sequence (Q61503 29-551): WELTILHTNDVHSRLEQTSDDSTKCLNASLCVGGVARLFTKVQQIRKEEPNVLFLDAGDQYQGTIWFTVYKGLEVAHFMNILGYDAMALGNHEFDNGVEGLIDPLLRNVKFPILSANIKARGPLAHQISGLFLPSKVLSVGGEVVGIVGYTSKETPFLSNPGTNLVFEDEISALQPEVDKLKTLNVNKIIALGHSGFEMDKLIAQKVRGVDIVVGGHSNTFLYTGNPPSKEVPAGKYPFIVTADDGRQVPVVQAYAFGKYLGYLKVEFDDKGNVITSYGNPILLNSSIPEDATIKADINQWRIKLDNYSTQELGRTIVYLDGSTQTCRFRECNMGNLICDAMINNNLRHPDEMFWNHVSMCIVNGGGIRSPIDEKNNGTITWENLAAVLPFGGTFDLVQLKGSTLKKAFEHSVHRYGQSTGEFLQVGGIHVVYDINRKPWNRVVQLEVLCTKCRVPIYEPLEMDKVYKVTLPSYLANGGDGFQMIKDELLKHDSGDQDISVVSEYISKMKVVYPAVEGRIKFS
Method: The cell-based CD73 enzyme inhibition assay was performed in a 96-well plate format using the Phosphate Assay Kit—PiColorLock™ in accordance with the manufacturer's instructions (cat no. 270004, Abcam). AMP is enzymatically converted by CD73 to adenosine and phosphate. Therefore, adenosine concentrations can be inferred from phosphate concentrations in 1:1 ratio. Both EMT6 mouse mammary carcinoma cells (ATCC CRL-2755) and human peripheral blood mononuclear cells (PBMC; Stemcell Technologies cat no. 70025, lot no. 2202401007) were assayed. The EMT6 cells were washed three times with a phosphate free CD73 buffer, detached from flasks using a cell scraper, and seeded at 3×10^3 cells/well in 100 μL into 96-well tissue culture-treated plates. Human PBMC cells were washed three times by suspending in phosphate free CD73 buffer and pelleting in a centrifuge at 125×g for 10 min at room temperature and seeded at 5×10^5 cells/well in 100 μL into 96-well tissue culture-treated plates. […] AMP was added at 100 μM and cells, test articles, and AMP were incubated together for 3 h and 24 h at 37° C., 5% CO2. The CD73 activity in the supernatant was quantified using the PiColorLock Phosphate assay kit. Colorimetric detection reagent was added and the free phosphate from the CD73 reaction was measured by reading the absorbance at 635 nm using the EnSpire multimode plate reader (PerkinElmer). Wells without test inhibitor (CD73 positive control) were included on each plate. Wells without test inhibitor and cells (background) were subtracted from all wells. The percent CD73 inhibition versus inhibitor concentration was plotted using GraphPad Prism Version 8 and IC50's calculated using nonlinear regression analysis (Sigmoidal, 4 PL).

[2] = molecular target: T2, CD73 (Homo sapiens, UniProt P21589); test: Cell-free CD73 enzyme inhibition assay; assay type: biochemical; details: recombinant human CD73 0.1 ng/μL, AMP 100 μM, 25 min at 37° C. (FIG. 1A, 1B)
T2 sequence (P21589 27-549): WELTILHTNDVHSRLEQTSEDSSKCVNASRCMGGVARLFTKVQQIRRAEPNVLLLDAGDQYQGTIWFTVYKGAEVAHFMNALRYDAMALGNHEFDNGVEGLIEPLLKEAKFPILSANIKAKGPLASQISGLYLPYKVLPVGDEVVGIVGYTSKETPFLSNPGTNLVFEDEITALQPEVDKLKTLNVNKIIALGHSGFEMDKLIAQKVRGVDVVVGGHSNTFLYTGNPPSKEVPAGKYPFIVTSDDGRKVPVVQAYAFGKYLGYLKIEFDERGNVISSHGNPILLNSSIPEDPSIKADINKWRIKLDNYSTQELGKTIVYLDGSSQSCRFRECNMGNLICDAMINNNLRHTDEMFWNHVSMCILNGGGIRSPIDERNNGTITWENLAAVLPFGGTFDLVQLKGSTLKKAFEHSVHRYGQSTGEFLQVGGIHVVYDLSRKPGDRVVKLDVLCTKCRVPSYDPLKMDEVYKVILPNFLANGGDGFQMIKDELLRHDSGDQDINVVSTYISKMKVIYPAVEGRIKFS
Method: The cell-free CD73 enzyme inhibition assay was performed in a 96-well plate format using the CD73 Inhibitor Screening Assay Kit in accordance with the manufacturer's instructions (cat no. 72055, BPS Bioscience). […] Colorimetric detection reagent was then added (100 μL/well) and the free phosphate from the CD73 reaction was measured by reading the absorbance at 630 nm using the EnSpire multimode plate reader (PerkinElmer). Wells without test inhibitor (CD73 positive control) were included on each plate. Blank wells without test inhibitor and CD73 were subtracted from all wells. Percent CD73 inhibition versus inhibitor concentration was plotted using GraphPad Prism Version 8 and IC50's calculated using nonlinear regression analysis (Sigmoidal, 4 PL).
The cell-free CD73 enzyme inhibition assay was performed in a 96-well plate format using the CD73 Inhibitor Screening Assay Kit in accordance with the manufacturer's instructions (BPS Bioscience cat no. 72055). […] Colorimetric detection reagent was then added (100 μL/well) and the free phosphate from the CD73 reaction was measured by reading the absorbance at 630 nm using the EnSpire multimode plate reader (PerkinElmer). Wells without test inhibitor (CD73 positive control) were included on each plate. Blank wells without test inhibitor and CD73 were subtracted from all wells. Percent CD73 inhibition (y-axis) versus log10 inhibitor concentration (x-axis) was plotted using GraphPad Prism Version 8 and IC50's calculated using nonlinear regression analysis (Sigmoidal, 4 PL).

| IC50 ([1]; 3 h IC50 [nM], 3 h) | IC50 ([1]; 24 h, read-out: 24 h IC50) | IC50 ([1]; read-out: 3 h IC50, 3 h) | IC50 [2] | SMILES |
| --- | --- | --- | --- | --- |
| 1.06 nM | 2.29 nM | – | – | C[C@H](Nc1cc(Cl)nc2c1cnn2[C@@H]1O[C@H](COP(=O)(O)CP(=O)(O)O)[C@@H](O)[C@H]1O)c1ccccc1F [AB680] |
| – | 0.51 nM | 0.28 nM | 1.3 nM | COC[C@](CO)(OC[C@H]1O[C@@H](n2ncc3c(NC4CCCC4)nc(Cl)nc32)[C@H](O)[C@@H]1O)P(=O)(O)O [OP-5244] |
| – | – | – | 4.1 nM | O=P(O)(O)COC[C@H]1O[C@@H](n2ncc3c(N4CC5(CCc6ccccc65)C4)nc(Cl)nc32)[C@H](O)[C@@H]1O [SHR170008] |
